Test results published in patent publication EP1121436B1, “NON-DESENSITIZING AMPA-RECEPTORS” (Max-Planck-Gesellschaft zur Förderung der Wissenschaften …, priority 1998, dated 2000).

How the values were obtained:
GluR3 L507Y = biological target: T1, GluR3 L507Y (Rattus norvegicus, UniProt P19492, L507Y); experiment: Responses to quisqualate and AMPA and effect of cyclothiazide (outside-out patch); assay type: cell-based
T1 construct: expressed in transfected cells; host or cells: HEK293, transient, pCDNA3

GluR3flip = biological target: T2, GluR3flip (Rattus norvegicus, UniProt P19492); experiment: Block of desensitization by cyclothiazide added to the agonist solution (outside-out patch); assay type: cell-based; details: cyclothiazide 100µM added to the agonist solution (10 mM glutamate)
T2 construct: expressed in transfected cells; host or cells: HEK293 (ATCC CRL 1573), transient, pcDNA3

R3(R6S1) = experiment: Effect of cyclothiazide on the peak response to glutamate (outside-out patch); assay type: cell-based, rat; details: 100 µM cyclothiazide added to the agonist solution, n=10
R6TM1R3 = biological target: T3, R6TM1R3 (Rattus norvegicus, UniProt P19492+P42260, A582S/A630S/C576V/C595R/D598Q/D600P/D669E/D672E/E603P/E625D/E665V/E681A/F612L/G615S/H593E/I581V/I639V/INS589HLED/INS599P/K629R/K679E/L568V/L569F/L572I/L608I/L609F/L619F/L626I/M627S/N596D/N605E/P592E/S624C/T607G/T633G/V580L/V601D/V602P/V616L/Y566C/Y590N); experiment: as above; assay type: cell-based; details: 100 µM cyclothiazide added to the agonist solution, n=13
T3 construct: the entire extracellular N-terminal region of GluR3flip was substituted by the corresponding region of GluR6; expressed in transfected cells; host or cells: HEK293, transient

R6TM1R3(Y521L) = biological target: T4, R6TM1R3(Y521L) (Rattus norvegicus, UniProt P19492+P42260, A582S/A630S/C576V/C595R/D598Q/D600P/D669E/D672E/E603P/E625D/E665V/E681A/F612L/G615S/H593E/I581V/I639V/INS589HLED/INS599P/K629R/K679E/L568V/L569F/L572I/L608I/L609F/L619F/L626I/M627S/N596D/N605E/P592E/S624C/T607G/T633G/V580L/V601D/V602P/V616L/Y521L/Y566C/Y590N); experiment: Responses to kainate and effect of cyclothiazide (outside-out patch); assay type: cell-based; details: glutamate evoked current in the presence of 100 µM cyclothiazide
T4 construct: the entire extracellular N-terminal region of GluR3flip was substituted by the corresponding region of GluR6; expressed in transfected cells; host or cells: HEK293, transient

[1] = test system: T504A, E511K or their combined exchange; assay type: cell-based, rat
GluR3-S1 chimeras = experiment: Responses to saturating kainate concentrations compared with glutamate (outside-out patch); assay type: cell-based, rat; details: saturating kainate concentrations (5-10 mM)

T1 sequence (P19492 23-888 isoform P19492-2 L507Y limits assumed): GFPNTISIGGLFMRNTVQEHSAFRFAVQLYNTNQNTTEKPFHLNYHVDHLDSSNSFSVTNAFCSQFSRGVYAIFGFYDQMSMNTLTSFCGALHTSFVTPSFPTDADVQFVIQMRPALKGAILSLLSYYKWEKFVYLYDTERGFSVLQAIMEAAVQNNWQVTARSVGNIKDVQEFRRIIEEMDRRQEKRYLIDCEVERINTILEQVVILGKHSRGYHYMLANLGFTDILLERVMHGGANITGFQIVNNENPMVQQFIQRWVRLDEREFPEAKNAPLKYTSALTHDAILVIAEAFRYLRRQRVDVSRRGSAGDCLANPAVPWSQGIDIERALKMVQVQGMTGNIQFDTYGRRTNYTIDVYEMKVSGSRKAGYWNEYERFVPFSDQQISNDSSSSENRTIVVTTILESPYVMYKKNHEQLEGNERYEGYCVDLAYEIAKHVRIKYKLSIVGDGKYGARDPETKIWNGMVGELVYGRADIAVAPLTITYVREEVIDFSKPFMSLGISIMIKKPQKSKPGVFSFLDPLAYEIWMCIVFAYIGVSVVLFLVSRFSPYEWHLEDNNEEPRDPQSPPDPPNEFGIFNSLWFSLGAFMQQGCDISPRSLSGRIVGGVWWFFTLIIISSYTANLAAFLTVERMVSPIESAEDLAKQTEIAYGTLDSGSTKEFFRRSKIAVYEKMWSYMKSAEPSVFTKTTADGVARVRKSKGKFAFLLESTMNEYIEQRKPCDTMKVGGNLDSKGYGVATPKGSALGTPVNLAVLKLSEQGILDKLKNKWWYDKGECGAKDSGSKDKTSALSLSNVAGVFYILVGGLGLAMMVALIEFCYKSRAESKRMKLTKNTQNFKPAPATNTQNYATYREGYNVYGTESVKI
T4 sequence (P42260+P19492 fused with the stated changes): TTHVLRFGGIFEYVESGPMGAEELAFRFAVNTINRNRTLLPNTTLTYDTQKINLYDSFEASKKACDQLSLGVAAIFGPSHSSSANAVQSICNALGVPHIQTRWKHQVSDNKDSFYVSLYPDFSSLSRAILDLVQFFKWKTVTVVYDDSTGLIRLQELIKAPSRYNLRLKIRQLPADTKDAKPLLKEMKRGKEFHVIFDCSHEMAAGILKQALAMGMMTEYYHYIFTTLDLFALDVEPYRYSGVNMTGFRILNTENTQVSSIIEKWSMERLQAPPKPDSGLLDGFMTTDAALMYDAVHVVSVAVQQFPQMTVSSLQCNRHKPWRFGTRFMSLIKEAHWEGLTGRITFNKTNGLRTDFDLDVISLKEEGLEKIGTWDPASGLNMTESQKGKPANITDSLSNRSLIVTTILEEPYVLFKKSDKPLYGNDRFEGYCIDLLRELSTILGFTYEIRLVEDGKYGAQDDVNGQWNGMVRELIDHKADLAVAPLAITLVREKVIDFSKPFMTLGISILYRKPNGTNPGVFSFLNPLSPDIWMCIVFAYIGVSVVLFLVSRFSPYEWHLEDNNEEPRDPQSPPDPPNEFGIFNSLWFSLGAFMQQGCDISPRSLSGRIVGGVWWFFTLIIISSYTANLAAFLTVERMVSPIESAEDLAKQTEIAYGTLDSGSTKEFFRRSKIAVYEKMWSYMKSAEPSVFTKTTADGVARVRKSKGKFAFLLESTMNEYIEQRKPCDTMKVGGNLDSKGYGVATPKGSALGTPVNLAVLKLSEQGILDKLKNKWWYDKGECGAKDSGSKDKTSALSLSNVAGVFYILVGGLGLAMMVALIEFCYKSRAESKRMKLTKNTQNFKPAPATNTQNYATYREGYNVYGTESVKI
T2 sequence (P19492 23-888 isoform P19492-2 limits assumed): as the sequence (P19492 23-888 isoform P19492-2 L507Y limits assumed) above, with Y485L counted along it
T3 sequence (P42260+P19492 fused with the stated changes): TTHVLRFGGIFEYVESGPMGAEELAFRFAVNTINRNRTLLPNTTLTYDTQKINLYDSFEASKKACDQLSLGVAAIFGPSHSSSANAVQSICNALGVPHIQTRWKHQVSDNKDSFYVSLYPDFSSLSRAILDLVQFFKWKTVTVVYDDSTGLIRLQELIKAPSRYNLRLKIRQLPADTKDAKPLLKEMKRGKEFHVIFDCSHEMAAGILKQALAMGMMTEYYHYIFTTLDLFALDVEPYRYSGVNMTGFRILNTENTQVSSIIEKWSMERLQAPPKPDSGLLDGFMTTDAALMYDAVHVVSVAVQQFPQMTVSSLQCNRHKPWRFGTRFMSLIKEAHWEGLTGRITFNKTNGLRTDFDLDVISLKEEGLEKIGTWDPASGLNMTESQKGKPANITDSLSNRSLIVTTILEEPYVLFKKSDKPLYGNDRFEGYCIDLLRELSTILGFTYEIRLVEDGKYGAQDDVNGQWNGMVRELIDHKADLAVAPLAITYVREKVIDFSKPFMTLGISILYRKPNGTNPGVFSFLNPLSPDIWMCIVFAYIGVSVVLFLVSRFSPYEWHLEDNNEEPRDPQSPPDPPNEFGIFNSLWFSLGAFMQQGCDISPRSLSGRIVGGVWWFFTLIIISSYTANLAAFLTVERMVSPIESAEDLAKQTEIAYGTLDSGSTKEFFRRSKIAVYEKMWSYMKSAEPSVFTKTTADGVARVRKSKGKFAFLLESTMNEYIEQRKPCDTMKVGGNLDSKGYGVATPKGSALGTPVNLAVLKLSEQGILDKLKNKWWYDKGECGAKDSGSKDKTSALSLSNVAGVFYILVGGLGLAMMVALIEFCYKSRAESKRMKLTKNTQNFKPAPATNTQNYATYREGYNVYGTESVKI

## Cc1onc(O)c1CC(N)C(=O)O (racemic) [AMPA, (RS)-alpha-amino-3-hydroxy-5-methyl-4-isoxazoleepropionic acid]
GluR3 L507Y; agonist 1 mM
  P/S: 1.05±0.03
GluR3 L507Y; n=7
  efficacy of opening, ratio glutamate/agonist: 0.97±0.03

## NS(=O)(=O)c1cc2c(cc1Cl)NC(C1CC3C=CC1C3)NS2(=O)=O (stereo not drawn) [cyclothiazide]
GluR3flip
  P/S values: ~1
R3(R6S1)
  inhibition of the peak response: 12±3%
R6TM1R3
  inhibition at 100 µM: 14 ± 4%
R6TM1R3(Y521L)
  effect on desensitization (result in words): Desensitization was blocked
[1]
  effect on desensitization (result in words): completely blocked
GluR3 L507Y; cyclothiazide (100 µM)
  reduction of peak response: 9.6±2.7%

## C=C(C)[C@H]1CN[C@H](C(=O)O)[C@H]1CC(=O)O [kainate]
GluR3-S1 chimeras
  desensitization of responses (result in words): essentially non-desensitizing
